Laboratory results from patent publication US6355799B1, “Substituted benzene compounds, process for their preparation, and herbicidal and defoliant compositions containing them” (ISK Americas Incorporated, priority 1997, dated 2002).

Legend:
Format in all cases: in vivo
[1] = test system: sicklepod (Cassia obtusifolia, CASOB); assay: Pre-emerge test, greenhouse herbicide activity screening; settings: pre-emerge, 14 days after application, rating scale 0-100
Description: (§1) A standard greenhouse herbicide activity screening system was used to evaluate the herbicidal efficacy and crop safety of these test compounds. Seven broadleaf weed species including redroot pigweed (Amaranthus retroflexus, AMARE, velvetleaf (Abutilon theophrasti, ABUTH), sicklepod (Cassia obtusifolia, CASOB), ivyleaf morningglory (Ipomoea hederacea, IPOHE), lambsquarters (Chenopodium album, CHEAL), common ragweed (Ambrosia artemisizfolia L., AMBEL), and cocklebur (Xanthium strumarium, XANST) were used as test species. Four grass weed species including green foxtail (Setaria viridis, SETVI), barnyardgrass (Echinochloa crus-galli, ECHCG), johnsongrass (Sorghum halepense, SORHA), and large crabgrass (Digitaria sanguinalis, DIGSA) were also used. In addition, three crop species, field corn (Zea mays L., var. Dekalb 535, CORN), soybean (Glycine max L., var. Pella 86, SOY), and is upland rice (Oryza sp., var. Tebonnet, RICE) were included.
(§2) All plants were grown in 10 cm square plastic pots which were filled with a sandy loam soil mix. For pre-emerge tests, seeds were planted one day prior to application of the test compounds. For post-emerge tests, seeds were planted 8-21 days prior to the test to allow emergence and good foliage development prior to application of the test substances. At the time of the post-emerge application, plants of all species were usually at the 2-3 leaf stage of development.
(§3) All test compounds Were dissolved in acetone and applied to the test units in a volume of 187 l /ha. Test materials were applied at rates ranging from 15 g ai/ha to 1000 g ai/ha using a track sprayer equipped with a TJ8001E even flow flat fan spray nozzle. Plants were arranged on a shelf so that the top of the canopy (post-emerge) or top of the soil surface (pre-emerge) was 40-45 cm below the nozzle. Pressurized air was used to force the test solution through the nozzle as it was mechanically advanced (via electrically driven chain drive) over the top of all test plants/pots. This application simulates a typical commercial field herbicide application.
(§4) In the post-emerge test, a commercial non-ionic surfactant was also included (0.25% v/v) to enhance wetting of the leaf surfaces of target plants. Immediately after application, test units of the pre-emerge applications were watered at the soil surface to incorporate the test materials. Subsequently, these test units were bottom-watered. Post-emerge test units were always bottom-watered.
(§5) At 14 days after application of the test materials, phytotoxicity ratings were recorded. A rating scale of 0-100 was used as previously described in Research Methods in Weed Science, 2nd edition, B. Truelove, Ed., Southern Weed Science Society, Auburn University, Auburn, Ala. 1977. Briefly, “0” corresponds to no damage and “100” corresponds to complete death of all plants in the test unit. This scale was used both to determine efficacy against weed species and damage to crop species. Herbicide activity data for various compounds of this invention, which are shown by compound No. in Tables 1-8, are shown in Tables 11 and 12.

[2] = test system: velvetleaf (Abutilon theophrasti, ABUTH); assay: as above; settings: pre-emerge, 14 days after application, rating scale 0-100
Description: as §1, §2, §3, §4, §5

[3] = test system: lambsquarters (Chenopodium album, CHEAL); assay: as above; settings: pre-emerge, 14 days after application, rating scale 0-100
Description: as §1, §2, §3, §4, §5

[4] = test system: ivyleaf morningglory (Ipomoea hederacea, IPOHE); assay: as above; settings: pre-emerge, 14 days after application, rating scale 0-100
Description: as §1, §2, §3, §4, §5

[5] = test system: green foxtail (Setaria viridis, SETVI); assay: as above; settings: pre-emerge, 14 days after application, rating scale 0-100
Description: as §1, §2, §3, §4, §5

[6] = test system: large crabgrass (Digitaria sanguinalis, DIGSA); assay: as above; settings: pre-emerge, 14 days after application, rating scale 0-100
Description: as §1, §2, §3, §4, §5

[7] = test system: barnyardgrass (Echinochloa crus-galli, ECHCG); assay: as above; settings: pre-emerge, 14 days after application, rating scale 0-100
Description: as §1, §2, §3, §4, §5

[8] = test system: redroot pigweed (Amaranthus retroflexus, AMARE); assay: Post-emerge test, greenhouse herbicide activity screening; settings: post-emerge, 14 days after application
Description: as §1, §2, §3, §4, §5

[9] = test system: sicklepod (Cassia obtusifolia, CASOB); assay: as above; settings: post-emerge, 14 days after application, rating scale 0-100
Description: as §1, §2, §3, §4, §5

[10] = test system: velvetleaf (Abutilon theophrasti, ABUTH); assay: as above; settings: post-emerge, 14 days after application, rating scale 0-100
Description: as §1, §2, §3, §4, §5

[11] = test system: lambsquarters (Chenopodium album, CHEAL); assay: as above; settings: post-emerge, 14 days after application, rating scale 0-100
Description: as §1, §2, §3, §4, §5

[12] = test system: ivyleaf morningglory (Ipomoea hederacea, IPOHE); assay: as above; settings: post-emerge, 14 days after application, rating scale 0-100
Description: as §1, §2, §3, §4, §5

[13] = test system: green foxtail (Setaria viridis, SETVI); assay: as above; settings: post-emerge, 14 days after application, rating scale 0-100
Description: as §1, §2, §3, §4, §5

[14] = test system: large crabgrass (Digitaria sanguinalis, DIGSA); assay: as above; settings: post-emerge, 14 days after application, rating scale 0-100
Description: as §1, §2, §3, §4, §5

[15] = test system: barnyardgrass (Echinochloa crus-galli, ECHCG); assay: as above; settings: post-emerge, 14 days after application, rating scale 0-100
Description: as §1, §2, §3, §4, §5

[16] = test system: field corn (Zea mays L., var. Dekalb 535, CORN); assay: Pre-emerge test, crop safety; settings: pre-emerge, 14 days after application, rating scale 0-100
Outline: (§6)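 Compounds in acetone were track-sprayed at 187 l/ha, 15–1000 g ai/ha, onto sandy loam pots. Pre-emerge seeds were sown one day before spraying, with surface watering afterwards. Post-emerge plants were at the 2–3 leaf stage and sprayed with 0.25% v/v non-ionic surfactant. Injury was rated 0–100 at 14 days.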

[17] = test system: upland rice (Oryza sp., var. Tebonnet, RICE); assay: Pre-emerge test, crop safety; settings: pre-emerge, 14 days after application, rating scale 0-100
Outline: as §6

[18] = test system: field corn (Zea mays L., var. Dekalb 535, CORN); assay: Post-emerge test, crop safety; settings: post-emerge, 14 days after application, rating scale 0-100
Outline: (§7)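 Plants grown in 10 cm pots of sandy loam mix received acetone-dissolved compounds through a moving flat-fan nozzle. Doses ranged from 15 to 1000 g ai/ha. Pre-emerge pots were seeded one day earlier, post-emerge pots 8–21 days earlier. Fourteen days on, each pot was graded 0–100 for damage.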

[19] = test system: upland rice (Oryza sp., var. Tebonnet, RICE); assay: Post-emerge test, crop safety; settings: post-emerge, 14 days after application, rating scale 0-100
Outline: as §7

[20] = test system: redroot pigweed (Amaranthus retroflexus, AMARE); assay: Pre-emerge test, greenhouse herbicide activity screening; settings: pre-emerge, 14 days after application, rating scale 0-100
Outline: as §7

Structure (SMILES): COc1c(Cl)cc(F)c(-n2c(=O)cc(C(F)(F)F)n(C)c2=O)c1NNC(=O)Nc1ccc(F)cc1F [15-8]
- phytotoxicity rating CASOB ([1]; 63 g ai/ha): 20
- phytotoxicity rating CASOB ([1]; 250 g ai/ha): 80
- phytotoxicity rating ABUTH ([2]; 63 g ai/ha): 40
- phytotoxicity rating ABUTH ([2]; 250 g ai/ha): 100
- phytotoxicity rating CHEAL ([3]; 63 g ai/ha): 60
- phytotoxicity rating CHEAL ([3]; 250 g ai/ha): 100
- phytotoxicity rating IPOHE ([4]; 63 g ai/ha): 0
- phytotoxicity rating IPOHE ([4]; 250 g ai/ha): 70
- phytotoxicity rating SETVI ([5]; 63 g ai/ha): 20
- phytotoxicity rating SETVI ([5]; 250 g ai/ha): 0
- phytotoxicity rating DIGSA ([6]; 63 g ai/ha): 30
- phytotoxicity rating DIGSA ([6]; 250 g ai/ha): 100
- phytotoxicity rating ECHCG ([7]; 63 g ai/ha): 0
- phytotoxicity rating ECHCG ([7]; 250 g ai/ha): 40
- Post-emerge Herbicidal Activity AMARE (phytotoxicity rating) ([8]; 63 g ai/ha, rating scale 0-100 (0 no damage, 100 complete death)): 20
- Post-emerge Herbicidal Activity AMARE (phytotoxicity rating) ([8]; 250 g ai/ha, rating scale 0-100): 60
- Post-emerge Herbicidal Activity CASOB (phytotoxicity rating) ([9]; 63 g ai/ha): 0
- Post-emerge Herbicidal Activity CASOB (phytotoxicity rating) ([9]; 250 g ai/ha): 40
- Post-emerge Herbicidal Activity ABUTH (phytotoxicity rating) ([10]; 63 g ai/ha): 70
- Post-emerge Herbicidal Activity ABUTH (phytotoxicity rating) ([10]; 250 g ai/ha): 100
- Post-emerge Herbicidal Activity CHEAL (phytotoxicity rating) ([11]; 63 g ai/ha): 95
- Post-emerge Herbicidal Activity CHEAL (phytotoxicity rating) ([11]; 250 g ai/ha): 90
- Post-emerge Herbicidal Activity IPOHE (phytotoxicity rating) ([12]; 63 g ai/ha): 50
- Post-emerge Herbicidal Activity IPOHE (phytotoxicity rating) ([12]; 250 g ai/ha): 90
- Post-emerge Herbicidal Activity SETVI (phytotoxicity rating) ([13]; 63 g ai/ha): 0
- Post-emerge Herbicidal Activity SETVI (phytotoxicity rating) ([13]; 250 g ai/ha): 30
- Post-emerge Herbicidal Activity DIGSA (phytotoxicity rating) ([14]; 63 g ai/ha): 0
- Post-emerge Herbicidal Activity DIGSA (phytotoxicity rating) ([14]; 250 g ai/ha): 0
- Post-emerge Herbicidal Activity ECHCG (phytotoxicity rating) ([15]; 63 g ai/ha): 0
- Post-emerge Herbicidal Activity ECHCG (phytotoxicity rating) ([15]; 250 g ai/ha): 20
- phytotoxicity rating CORN ([16]; 63 g ai/ha): 0
- phytotoxicity rating CORN ([16]; 250 g ai/ha): 90
- phytotoxicity rating RICE ([17]; 63 g ai/ha): 15
- phytotoxicity rating RICE ([17]; 250 g ai/ha): 90
- Post-emerge Herbicidal Activity CORN (crop damage rating) ([18]; 63 g ai/ha): 0
- Post-emerge Herbicidal Activity CORN (crop damage rating) ([18]; 250 g ai/ha): 55
- Post-emerge Herbicidal Activity RICE (crop damage rating) ([19]; 63 g ai/ha): 10
- Post-emerge Herbicidal Activity RICE (crop damage rating) ([19]; 250 g ai/ha): 60
- phytotoxicity rating AMARE ([20]; 63 g ai/ha): 60
- phytotoxicity rating AMARE ([20]; 250 g ai/ha): 100
